Laboratory results published in US20230172206A1 (BASF SE, priority 2020, published 2023).

Tests used:
[1] = system: Phakopsora pachyrhizi (F129L); test: Protective control of soybean rust on soybeans (PHAKPA P2); format: in vivo; settings: for % PHAKPA (F129L) Disease level P2 at 4 ppm: protective P2, 4 ppm; for % PHAKPA (F129L) Disease level P2 at 16 ppm: protective P2, 16 ppm
[2] = system: Phakopsora pachyrhizi (F129L); test: Protective control of soybean rust on soybeans (PHAKPA P6); format: in vivo; settings: for % PHAKPA (F129L) Disease level P6 at 4 ppm: protective P6, 4 ppm; for % PHAKPA (F129L) Disease level P6 at 16 ppm: protective P6, 16 ppm

Row | Structure (SMILES) | % PHAKPA (F129L) Disease level P2 at 4 ppm ([1]; soybean rust F129L isolate) | % PHAKPA (F129L) Disease level P2 at 16 ppm ([1]; soybean rust F129L isolate) | % PHAKPA (F129L) Disease level P6 at 4 ppm ([2]; soybean rust F129L isolate) | % PHAKPA (F129L) Disease level P6 at 16 ppm ([2]; soybean rust F129L isolate) | % PHAKPA (F129L) Disease level P2 at 4 ppm ([1]; F129L isolate) | % PHAKPA (F129L) Disease level P2 at 16 ppm ([1]; F129L isolate) | % PHAKPA (F129L) Disease level P6 at 4 ppm ([2]; F129L isolate) | % PHAKPA (F129L) Disease level P6 at 16 ppm ([2]; F129L isolate)
1 | CO/N=C(/C(=O)OC)c1cccc(C)c1CO/N=C(\C)c1cc(Cl)c(F)c(Cl)c1 [compound 246] | 40% | 15% | 77% | 7% | – | – | – | –
2 | CNC(=O)/C(=N/OC)c1cccc(C)c1CO/N=C(\C)c1c(Cl)ccc(F)c1OC(F)(F)F [compound 440] | – | – | – | – | 93% | 23% | 73% | 23%
3 | CCC/C(=N\OCc1c(C)cccc1/C(=N\OC)C(=O)OC)c1ccccc1 [compound 387] | – | – | – | – | 60% | 30% | 80% | 47%
4 | CO/C=C(/C(=O)OC)c1cccc(C)c1CO/N=C(\C)c1ccc(Cl)c(F)c1OC(F)(F)F [compound 452] | – | – | – | – | 60% | 6% | 70% | 14%
5 | CNC(=O)/C(=N/OC)c1cccc(C)c1CO/N=C(\CC(F)(F)F)c1cc(Cl)cc(Cl)c1 [compound 255] | 97% | 83% | 100% | 87% | – | – | – | –
6 | CNC(=O)/C(=N/OC)c1cccc(C)c1CO/N=C(\C)c1cc(F)c(F)cc1CC(F)(F)F [compound 406] | – | – | – | – | 97% | 30% | 67% | 23%
7 | CNC(=O)/C(=N/OC)c1cccc(C)c1CO/N=C(\C)c1ccc(/C(C)=N\OC)cc1C(F)(F)F [compound 420] | – | – | – | – | 8% | 0% | 12% | 1%
8 | CNC(=O)/C(=N/OC)c1cccc(C)c1CO/N=C(\C)c1ccc(Cl)cc1OC(F)(F)F [compound 375] | 47% | 8% | 40% | 6% | – | – | – | –
9 | CO/N=C(/C(=O)OC)c1cccc(C)c1CO/N=C(\C)c1cc(F)ccc1Br [compound 254] | 100% | 77% | 100% | 100% | – | – | – | –
10 | CNC(=O)/C(=N/OC)c1cccc(C)c1CO/N=C(\C)c1ccc(F)cc1OC(F)(F)F [compound 378] | 18% | 1% | 17% | 1% | – | – | – | –
11 | CO/C=C(/C(=O)OC)c1cccc(C)c1CO/N=C(\C)c1cc(F)c(F)cc1CC(F)(F)F [compound 405] | – | – | – | – | 97% | 27% | 70% | 27%
12 | CO/N=C(/C(=O)OC)c1cccc(C)c1CO/N=C(\C)c1ccc(-c2ccccc2)cc1C(F)(F)F [compound 414] | – | – | – | – | 53% | 9% | 53% | 15%
13 | CNC(=O)/C(=N/OC)c1cccc(C)c1CO/N=C(\C)c1c(F)ccc(C(F)(F)F)c1NC [compound 233] | 100% | 57% | 87% | 27% | – | – | – | –
14 | CO/N=C(/C(=O)OC)c1cccc(C)c1CO/N=C(\C)c1ccc(Br)cc1C(F)(F)F [compound 257] | 93% | 35% | 100% | 57% | – | – | – | –
15 | CNC(=O)/C(=N/OC)c1cccc(C)c1CO/N=C(\C)c1ccccc1C(F)F [compound 298] | 63% | 7% | 97% | 37% | – | – | – | –
16 | CO/C=C(/C(=O)OC)c1cccc(C)c1CO/N=C(\C)c1c(Cl)cc(Cl)cc1OC(F)(F)F [compound 436] | – | – | – | – | 70% | 15% | 73% | 27%
17 | CO/N=C(/C)c1ccc(/C(C)=N/OCc2c(C)cccc2/C(=N\OC)C(=O)OC)c(OC(F)(F)F)c1 [compound 418] | – | – | – | – | 70% | 33% | 73% | 57%
18 | CNC(=O)/C(=N/OC)c1cccc(C)c1CO/N=C(\C)c1ccc(F)cc1C(F)(F)F [compound 260] | 22% | 0% | 22% | 0% | – | – | – | –
19 | CO/N=C(/C(=O)OC)c1cccc(C)c1CO/N=C(\C)c1ccc(C)c(C(F)(F)F)c1 [compound 229] | 27% | 2% | 77% | 6% | – | – | – | –
20 | CO/N=C(/C(=O)OC)c1cccc(C)c1CO/N=C(\C)c1ccc(OC(F)(F)F)cc1F [compound 269] | 5% | 0% | 18% | 0% | – | – | – | –
21 | CNC(=O)/C(=N/OC)c1cccc(C)c1CO/N=C(\C)c1ccc(Oc2ccc(Cl)cc2)cc1C(F)(F)F [compound 336] | 63% | 20% | 50% | 17% | – | – | – | –
22 | CO/N=C(/C(=O)OC)c1cccc(C)c1CO/N=C(\C)c1c(F)cc(F)cc1OC(F)(F)F [compound 361] | 80% | 18% | 88% | 31% | – | – | – | –
23 | CNC(=O)/C(=N/OC)c1cccc(C)c1CO/N=C(\C)c1cc(Cl)cc(C(F)(F)F)c1 [compound 228] | 5% | 0% | 22% | 2% | – | – | – | –
24 | CNC(=O)/C(=N/OC)c1cccc(C)c1CO/N=C(\C)c1c(Cl)cc(Cl)cc1OC(F)(F)F [compound 428] | – | – | – | – | 70% | 11% | 83% | 20%
25 | CO/N=C(/C(=O)OC)c1cccc(C)c1CO/N=C(\C)c1cc(F)c(F)cc1C(F)(F)F [compound 409] | – | – | – | – | 77% | 40% | 83% | 73%
26 | CO/C=C(/C(=O)OC)c1cccc(C)c1CO/N=C(\C)c1ccc(F)c(F)c1OC(F)(F)F [compound 450] | – | – | – | – | 3% | 1% | 4% | 1%
27 | CNC(=O)/C(=N/OC)c1cccc(C)c1CO/N=C(\C)c1ccccc1OC1CC1 [compound 329] | 100% | 53% | 100% | 73% | – | – | – | –
28 | CO/C=C(/C(=O)OC)c1cccc(C)c1CO/N=C(\C)c1ccc(Br)cc1C(F)(F)F [compound 445] | – | – | – | – | 15% | 1% | 30% | 2%
29 | CNC(=O)/C(=N/OC)c1cccc(C)c1CO/N=C(\CC(F)(F)F)c1ccccc1C [compound 393] | – | – | – | – | 93% | 55% | 93% | 42%
